Experiment [1] is described as follows: Heparin binding on Heparin-Sepharose. To be noted: eluted with NaCl (0.5, 1, 2M); Western blot or MALDI-TOF MS. Here is the method: Intact recombinant protein (10 μg, EBNA-cell expressed) diluted in PBS was passed over Heparin-Sepharose (Amersham Pharmacia) (1 ml), washed with 20 volumes of PBS and eluted with 2 M NaCl (6×1 ml). Eluted material was precipitated with ethanol, separated by SDS-PAGE (10%) and visualized by western blot (CHAD ab α-80, Larsson et al). The peptide CKFPTKRSKKAGRH (SEQ ID No:7) was diluted in PBS and passed over heparin-sepharose (100 μl), the column was washed with 20 volumes PBS and bound material eluted with 0.5, 1, and 2M NaCl (3 column volumes of each).
Recombinant chondroadherin (10 or 100 μg) expressed in EBNA-cells was passed over Heparin-Sepharose-column (Pharmacia). The column was washed and eluted with 2M NaCl in PBS. Eluted material was separated on SDS-PAGE (10%) and detected by western blot using a chondroadherin antibody (see FIG. 4). The band at 36 kDa represents chondroadherin ant the band at 72 kDa represents a dimer of chondroadherin.
The candidate peptide CKFPTKRSKKAGRH (SEQ ID No: 7) was synthesized. The ability of the peptide to bind heparin was confirmed on heparin-sepharose, where material eluted with 0.5, 1 and 2M NaCl was identified by MALDI-TOF MS (data not shown).
Background: A western blot detects proteins with antibodies after separation by electrophoresis.

The next experiment has as its system K105 cells. Put plainly: Effect on K105 cells already adherent to chondroadherin, light microscopy time study (FIG. 7, 9, 10). In kind it is cell-based, human. To be noted: peptide 250 μg/ml added after 30 min adhesion; light microscopy after 1, 3 and 20 hours. The protocol: To test cell binding, the chondrosarcoma cells or bovine chondrocytes were suspended in PBS containing 0.1% BSA, 25 U/ml collagenase and added to the wells (50,000/well), in the absence or presence of various peptide pools or the synthetic peptides (200, 100, 50, 25, 12.5 μg/ml). Non-adherent cells were removed after 1 hour and adhesion was determined by measuring lysosomal N-acetylglucosaminidase (12). Adhesion and spreading was visualized by light microscopy. In the time studies, k105 cells were allowed to adhere for 30 minutes, unbound cells were removed and medium without serum supplemented with or without peptides (250 μg/ml), β1 integrin antibody (clone P4C10, Gibco BRL), EDTA (5 mM) was added. Cell morphology was visualized by light microscopy after 1, 3 and 20 hours.
Tissue culture dishes were coated with 5 μg/ml chondroadherin expressed in E. coli and blocked for non-specific binding with BSA. The k105 cells were suspended in PBS containing 0.1% BSA, and added to the wells (50,000/well). Nonadherent cells were removed after 30 min by washing, plain medium without serum with or without peptides (250 μg/ml) was added and bound cells were visualized by light microscopy after 1, 3 and 20 hours.
Tissue culture dishes were coated with 5 μg/ml chondroadherin expressed in E. coli and blocked for non-specific binding with BSA. The cells were suspended in PBS containing 0.1% BSA, and added to the wells (50,000/well). Nonadherent cells were removed after 30 min by washing, plain medium without serum with or without peptides (250 μg/ml) was added and bound cells were visualized by light microscopy after 1, 3 and 20 hours. […] The activity for integrin binding is located in the C-terminal eight residues of the sequence involving the WLEAK (SEQ ID No. 1) sequence.
Tissue culture dishes were coated with 5 μg/ml chondroadherin expressed in E. coli and blocked for non-specific binding with BSA. The k105 cells were suspended in PBS containing 0.1% BSA, and added to the wells (50,000/well). Nonadherent cells were removed after 30 min by washing, peptide, anti β1 antibody, 5 mM EDTA or plain medium without serum was added and bound cells were visualized by light microscopy after 1 and 3 hours.

Entries after “also recorded” stand apart in the source; their conditions may differ.

Turning to H-CKFPTKRSKKAGRH-OH [SEQ ID No. 7], the binding to heparin-sepharose result in experiment [1] is “confirmed; also recorded: bind heparin”. For the same substance, the “spreading, migration and aggregation of k105 cells adherent to chondroadherin” value with K105 cells was “spreading and migration increased”.

(Values after patent US8158577B2, “Modulation of cartilage homeostasis by active domains of cell binding extracellular matrix molecules” (priority 2004, dated 2012).)
